From patent US6403637B1, “Methods of modulating matrix metalloproteinase activity and uses thereof” (priority 1999, dated 2002)

Experiments:
human chondrocytes [1] = test: Binding of 125I collagenase-3 to human chondrocytes; settings: osteoarthritis chondrocytes, 10 μM b.i.d. for three days; p<0.05
Experimental: (§1) For all binding experiments, cells were seeded into 2.0 cm^2 wells. After the cells reached approximately 95% confluence, the medium was replaced with fresh medium containing 1 mg/ml BSA and the cells were assayed for binding 4 h later. The cells were first washed with maintenance medium, then incubated in the same medium with 0.01% Tween 80 containing ^125I-rat collagenase-3 or other iodinated ligands at 4° C. for 2 h. Non-specific binding was assessed by adding a 50-100-fold excess of cold ligand to half the wells, while an equivalent volume of buffer was added to the remaining wells. After incubation, the wells were washed three times with ice-cold MEM (0.5 ml). The cells were then lysed with 500 μl of 1 M NaOH and the lysates were counted on a gamma counter. Protein labeling with ^125I was done using the chloramine T method (Greenwood et al., 1963, Biochem. J. 89:114). The proteins had specific activities ranging from 9 to 27 μCi/μg.
(§2) Human tissue (articular cartilage and synovium) was obtained at surgery or autopsy and was prepared as follows. Tissue was minced in a laminar flow hood, then incubated in sterile filtered serum-free Dulbecco's modified Eagle's medium (50 ml) containing trypsin (0.25%) for 1 h at 37° C. on an orbital shaker. […]

human chondrocytes [2] = test: Excretion of degraded (TCA-soluble) 125I-collagenase-3 from human chondrocytes; type: cell-based
Experimental: (§3) Excretion of degraded matrix metalloproteinase is preferably evaluated by performing steps (a) through (e) of the internalization assay described above, collecting the media overlying the cells after incubating for 15 min to I hr, precipitating intact proteins from the collected media (e.g., incubating for 2 hr with 20% trichloroacetic acid in ethanol and 2% bovine serum albumin), pelleting the precipitated intact proteins, and measuring the label in the supernatant (e.g., by gamma counting ^125I).
as §2
(§4) As receptor-mediated processing of collagenase-3 culminates in lysosomal degradation and extracellular release of the ligand, binding and degradation assays as above were performed and measured the presence of degraded (TCA-soluble) ^125I-collagenase-3 in the media overlying cells. […]

UMR 106-01 cells [3] = test: Competition for 125I collagenase-3 binding in UMR 106-01 cells; set-up: species or system rat; settings: 125I-rat collagenase-3
Experimental: as §1
These proteins were used as competitors in a series of binding assays in UMR cells using ^125I mouse collagenase-3. Radioactive labeling and binding assays were performed as in Example 1.

UMR 106-01 cells [4] = test: Internalization assay in UMR 106-01 cells; type: cell-based, rat; set-up: reduction of intracellular accumulation of 125I-collagenase: dose or concentration left out as unconfirmed
Experimental: (§5) Although the low density lipoprotein receptor-related protein is not required for rat collagenase-3 binding to the cell, it might be required for ligand internalization. Therefore, internalization assays were performed with ^125I-rat collagenase-3 using MEF-1 and MEF-2 cells as follows. After binding 125I-rat labeled proteins as above, the cells were washed three times with cold modified Eagle's media (0.5 ml) to remove unbound ligand. The cells were then warmed to 37° C. by the addition of prewarmed modified Eagle's media (0.25 ml), and incubated at 37° C. for selected intervals. At each time point, the media were collected, and the cells were washed once with ice-cold MEM, then incubated with 0.25% Pronase®-E in modified Eagle's media for 15 min at 4° C. to strip cell surface proteins. The cell suspension was then centrifuged, and the radioactivity associated with cell pellets (defining internalized ^125I-proteins) was measured at each time point.
It is known that RAP inhibits internalization of ligands by the low density lipoprotein receptor-related protein (Kounnas et al., 1996, J. Biol. Chem 271:6523). Therefore, internalization assays were performed using ^125I-labeled rat collagenase-3 as a ligand and receptor-associated protein as a competitor. Human receptor-associated protein from the pGEX-receptor-associated protein expression vector (provided by Dr. Joachim Herz, University of Texas Southwestern Medical Center, Dallas, Tex.) was expressed in bacteria and prepared as described in Herz et al., 1991, J. Biol. Chem. 266:21232.
To investigate the mechanism by which RAP regulates internalization of collagenase-3, an experiment was performed where excess unlabeled RAP or rat collagenase-3 was prebound to UMR 106-01 cells. Binding and internalization of ^125I-labeled rat collagenase-3 and RAP were then allowed to proceed.

normal rat osteoblasts = test: Internalization of 125I-rat collagenase-3 in normal rat osteoblasts; type: cell-based; set-up: reduction of intracellular accumulation of 125I-collagenase: dose or concentration left out as unconfirmed
Experimental: Previous work has shown that the rat collagenase-3 endocytosis receptor system is present on UMR 106-01 rat osteosarcoma cells (Omura et al, 1994, J. Biol. Chem. 269:24994). To determine whether the receptor is present in other cells, several cell types were tested for their ability to bind rat collagenase-3. These cell types were normal rat osteoblasts, rat embryo fibroblasts, the rat epithelial breast carcinoma cell line BC-1, mouse NIH 3T3 fibroblasts, the human osteosarcoma cell line SAOS-2, and the rat osteosarcoma cell lines ROS 17/2.8 and UMR 106-01. The human osteosarcoma cell line SAOS-2 (ATCC HTB 85) and the mouse embryo fibroblast cell line NIH 3T3 (ATCC CRL 1658) were cultured according to recommendations of the American Type Culture Collection, Rockville, Md. UMR 106-01 rat osteosarcoma cells were cultured as described in Roswit et al., 1992, Arch. Biochem. Biophys. […]
Although the low density lipoprotein receptor-related protein is not required for rat collagenase-3 binding to the cell, it might be required for ligand internalization. […] The cell suspension was then centrifuged, and the radioactivity associated with cell pellets (defining internalized ^125I-proteins) was measured at each time point.
The ability of receptor-associated protein to inhibit internalization of ^125I-rat collagenase-3 in UMR 106-01 osteoblastic cells and normal rat osteoblasts was determined next. […]

human chondrocytes [5] = test: Internalization of 125I collagenase-3 by human chondrocytes; type: cell-based; settings: p<0.001
Experimental: as §5
Human tissue (articular cartilage and synovium) was obtained at surgery or autopsy and was prepared as follows. […]
To determine whether the decreased collagenase-3 binding in osteoarthritis tissues correlated with reduced receptor function, the amount of ^125I collagenase which was internalized by osteoarthritis and control chondrocytes was determined as described in Example 1. […]

synoviocytes = test: Internalization of 125I collagenase-3 by human synoviocytes; type: cell-based; settings: compared to chondrocytes
Experimental: as §5, §2

human synoviocytes = test: Excretion of degraded (TCA-soluble) 125I-collagenase-3 from human synoviocytes; type: cell-based
Experimental: as §3, §2, §4

[6] = 3 nM 125I-rat collagenase-3 + 100 nM RAP, mean ± SEM, triplicate

CC[C@H](C)C(=O)O[C@H]1C[C@H](O)C=C2C=C[C@H](C)[C@H](CC[C@@H](O)C[C@@H](O)CC(=O)[O-])[C@H]21.[Na+] [pravastatin, Pravastatin sodium] was tested, and the “increase in collagenase-3 binding” value (human chondrocytes [1]) was 30% and the “enhancement of excretion of degraded collagenase-3” value (human chondrocytes [2]; osteoarthritis chondrocytes, 10 μM b.i.d. for three days, p<0.02) was “over 320%”.
In the case of “RAP: human receptor-associated protein expressed in bacteria from the pGEX expression vector; inhibits ligand internalization by LRP”, the “competition with / inhibition of 125I-rat collagenase-3 binding (in words)” value (UMR 106-01 cells [3]) is reported as “does not inhibit”, the “% of maximum internalization, UMR 106-01 rat osteoblasts” value (UMR 106-01 cells [4]; [6]) is reported as 20.84 ± 1.98% and the “inhibition of internalization of 125I-rat collagenase-3” value (UMR 106-01 cells [4]; FIG. 10, increasing concentrations of RAP) is reported as “approximately 70%”. For the same molecule, the “effect of prebound excess unlabeled protein on rat collagenase-3 internalization” value (UMR 106-01 cells [4]; prebound to cells) was “inhibited”, the “reduction of intracellular accumulation of 125I-collagenase” value (UMR 106-01 cells [4]; receptor-associated protein in binding medium) was 79% and the “% of maximum internalization, Normal rat osteoblasts” value (normal rat osteoblasts; [6]) was 56.99 ± 4.49%. The “reduction of intracellular accumulation of 125I-collagenase” value (normal rat osteoblasts; receptor-associated protein in binding medium, normal mineralizing rat osteoblasts) was 43%, the “inhibition of collagenase-3 internalization” value (human chondrocytes [5]; control chondrocytes) was 88.2% and the “reduction of collagenase-3 internalization” value (human chondrocytes [5]; osteoarthritis chondrocytes) was 74.3%. The “inhibition of collagenase-3 internalization (in words)” value (synoviocytes) was “similar”, the “effect on excretion of collagenase-3 (in words)” value (human chondrocytes [2]; chondrocytes) was “inhibited” and the “effect on excretion of collagenase-3 (in words)” value (human synoviocytes) was “inhibited”.
